Measured values as given in US9399631B2, “Polyphenol proteasome inhibitors, synthesis, and methods of use” (UNIVERSITY OF SOUTH FLORIDA, priority 2003, dated 2016).
Where a SMILES comes first, the peptide text is derived from it. [ ]: non-standard residue; d: D form. Nle = CCCC[C@H](N)C(=O)O

Tests used:
[1] = target: T1, 20S eukaryotic proteasome (Oryctolagus cuniculus, UniProt G1T4Q9); assay: Inhibition of chymotrypsin-like activity of purified eukaryotic 20S proteasome (Suc-Leu-Leu-Val-Tyr-AMC); type: biochemical, rabbit
T1 construct: purchased BOSTON BIOCHEM (Cambridge, Mass.)
T1 sequence (G1T4Q9 1-263): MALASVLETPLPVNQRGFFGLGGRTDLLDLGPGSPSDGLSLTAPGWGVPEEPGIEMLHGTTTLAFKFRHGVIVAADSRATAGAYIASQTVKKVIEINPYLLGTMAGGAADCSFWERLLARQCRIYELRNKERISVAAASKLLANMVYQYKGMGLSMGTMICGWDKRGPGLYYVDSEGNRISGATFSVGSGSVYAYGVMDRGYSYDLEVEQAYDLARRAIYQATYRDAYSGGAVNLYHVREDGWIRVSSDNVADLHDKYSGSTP
Protocol: Materials. Highly purified tea polyphenols (−)-EGCG (>95%), (−)-GCG (>98%), (−)-ECG (>98%), (−)-CG (>98%), fetal calf serum, propidium iodide, 3-[4,5-dimethylthiazol-2-yl]-2,5-diphenyltetrazolium bromide (MTT), RNase A, and DMSO were purchased from Sigma (St. Louis, Mo.). (+)-EGCG, benzyl-protected-(+)-EGCG, (+)-GCG, (−)-EGCG-amide, and (+)-EGCG-amide were prepared by enantioselective synthesis (see below). Purified 20S eukaryotic proteasome from rabbit was purchased from BOSTON BIOCHEM (Cambridge, Mass.). Purified 20S prokaryotic proteasome (Methanosarcina thermophile, Recombinant, E. coli) was purchased from CALBIOCHEM (La Jolla, Calif.). Fluorogenic peptide substrates Suc-Leu-Leu-Val-Tyr-AMC (for the proteasomal chymotrypsin-like activity) was obtained from Calbiochem (La Jolla, Calif.). RPMI 1640 medium, Dulbecco's modified Eagle's medium, MEM non-essential amino acids solution, MEM-sodium pyruvate solution, penicillin, and streptomycin were from INVITROGEN (Carlsbad, Calif.). Monoclonal antibody to p27^Kip was purchased from PHARMINGEN (San Diego, Calif.); polyclonal antibodies to IκB-α, Bax and actin, and monoclonal antibody to ubiquitin were from SANTA CRUZ Biotechnology Inc. (Santa Cruz, Calif.).
(§1) Inhibition of purified 20S proteasome activity by natural or synthetic GTPs. Purified prokaryotic (0.5 μg) or eukaryotic (0.02 μg) 20S proteasome was incubated with 20 μM fluorogenic peptide substrate, Suc-Leu-Leu-Val-Tyr-AMC for 30 min at 37° C. in […] of assay buffer (50 mM Tris-HCl, pH 7.5), with or without a natural or synthetic tea polyphenol. After incubation, production of hydrolyzed 7-amido-4-methyl-coumarin (AMC) groups was measured using a multi-well plate VERSAFLUOR Fluorometer with an excitation filter of 380 nm and an emission filter of 460 nm (BIO-RAD), and a multi-well plate reader Wallac 1420 VICTORTM^2 with an excitation filter of 355 nm and an emission filter of 460 nm (EG&G WALLAC).
Purified prokaryotic (0.5 μg) or eukaryotic (0.02 μg) 20S proteasome was incubated with 20 μM fluorogenic peptide substrate, Suc-Leu-Leu-Val-Tyr-AMC for 30 minutes at 37° C. in 100 μl of assay buffer ([…] Tris-HCl, pH 7.5), with or without a natural or synthetic tea polyphenol. After incubation, production of hydrolyzed AMC groups was measured using a multi-well plate VERSAFLUOR Fluorometer with an excitation filter of 380 nm and an emission filter of 460 nm.
(−)-EGCG at 1 μM was incubated with eukaryotic 20S proteasome (0.02 μg) and suc-LLVY-AMC (20 μM) for the times indicated in FIG. 7. The chymotrypsin activity was measured and graphed in FIG. 7. Values are means from 4 independent experiments, and error bars represent standard deviations.
In the second experiment (−)-EGCG at 1 μM was pre-incubated with (SDS-pre) or without 0.01% SDS (no SDS) for 1 hour, followed by addition of eukaryotic 20S proteasome (0.02 μg) and suc-LLVY-AMC (20 μM). “SDS-post” represents the same treatment as “no SDS” except 0.01% SDS was added 1 hour after addition of the proteasome, (−)-EGCG and the substrate. AMC liberation was measured by fluorescence at each indicated time point and the percentage of chymotrypsin activity was determined. Values are means from 4 independent experiments, and error bars represent standard deviations.

LNCaP cells [2] = assay: Soft agar colony formation assay; type: cell-based, human; conditions: 50 μM, 14 day-incubation
Protocol: Soft Agar Assay. The soft agar assay was performed according to Smith et al. (Smith, D. M. et al. Mol Med, 2002, 8:382-392) with a few modifications. In brief, in a six-well plate, a bottom feeder layer (0.6% agar) was prepared with DMEM media containing 10% fetal bovine serum, 100 units/ml penicillin, and 100 μg/ml streptomycin. A top layer (0.3% agar) was prepared with DMEM and the same media as described above but containing 2×10^4 prostate cancer LNCaP cells and indicated analogs or DMSO as a control. Plates were incubated at 37° C. in 5% CO2 in a humidified incubator for two weeks. MTT (1 mg/ml) was added to each well and incubated overnight to allow complete formation of purple formazan crystals. The plates were then scanned and photographed, and the number of colonies was quantified by QUANTITY ONE v.4.0.3 software (Bio-Rad, Hercules, Calif.).
The […] effects of several GTP analogs were investigated with a soft agar assay that measures the transforming activity of human tumor cells. LNCaP cells were plated in soft agar (see Materials and Methods) along with 50 μM of GTP-1, -2, -3, (−)-EGCG (as a positive control; Smith, D. M. et al. Mol Med, 2002, 8:382-392, 2002), or the solvent (as a negative control), followed by a 14 day-incubation to allow for colony formation (FIGS. 12A and 12B).
In a second experiment, LNCaP cells were plated in soft agar along with 10 μM of each indicated GTP or solvent (H2O), followed by a 14 day-incubation to allow for colony formation (FIG. 21A). […] Colonies were quantified with an automated counter and presented as mean values from triplicate independent experiments. Error bars denote standard deviations.

purified 20S proteasome [3] = target: T2, purified 20S proteasome (UniProt G1T4Q9); assay: Inhibition of chymotrypsin-like activity of purified 20S proteasome (source not stated); type: biochemical; conditions: chymotrypsin-like activity of purified 20S proteasome
T2 construct: IC50; other: chymotrypsin-like activity of purified 20S proteasome
Protocol: as §1

LNCaP cells [4] = assay: Western blot of proteasome target proteins in LNCaP cells; type: cell-based, human; conditions: 50 μM, 3 to 12 hours
Protocol: (§2) Cell Culture, Cell Extract Preparation, and Western Blot Assay. Human leukemia Jurkat T and prostate cancer LNCaP cells were cultured in RPMI 1640 medium supplemented with 10% fetal calf serum, 100 units/ml of penicillin, and 100 μg/ml streptomycin. Human immortalized, non-transformed NK cells (YT cell line) (38) were cultured in RPMI 1640 supplemented with 1 mM MEM sodium pyruvate solution, 0.1 mM MEM non-essential amino acids solution, 10% fetal calf serum. 100 units/ml penicillin, and 100 μg/ml streptomycin. Normal (WI-38) and simian virus 40 (SV40)-transformed (VA-13) human fibroblasts were grown in Dulbecco's modified Eagle's medium supplemented with 10% fetal calf serum, 100 units/ml of penicillin and 100 μg/ml of streptomycin. All cells were maintained at 37° C. in a humidified incubator with an atmosphere of 5% CO2. A whole cell extract was prepared in accordance with An et al. (An, B. et al. Cell Death Differ, 1998, 5:1062-75). Briefly, cells were harvested, washed with PBS twice, and homogenized in a lysis buffer [50 mM Tris-HCl (pH 8.0), 5 mM EDTA, 150 mM NaCl, 0.5% NP-40, 0.5 mM phenylmethylsulfonyl fluoride, and 0.5 mM dithiothreitol] for 30 min at 4° C. Afterwards, lysates were centrifuged at 12,000×g for 15 min at 4° C., and the supernatants were collected as whole cell extracts. Equal amounts of protein extract (60 μg) were resolved by SDS-polyacrylamide gel electrophoresis and transferred to a nitrocellulose membrane using a Semi-Dry Transfer system (BIO-RAD, Hercules, Calif.). Jurkat T, LNCaP, or DU-145 cells were treated with various concentrations of synthetic or natural tea polyphenols for indicted hours. The enhanced chemiluminescence (ECL) Western blot analysis was then performed using specific antibodies to the proteins of interest (p^27kip, IκB-α, PARP, Bax or actin). The ratio of p27 or IκB-α to the corresponding actin was determined by scanning intensities of the protein bands.
To investigate whether (−)-EGCG-amide and (+)-EGCG-amide inhibit intact tumor cell proteasome activity, human prostate cancer LNCaP cells were treated with 25 μM of (−)- or (+)-EGCG-amide for up to 9 hours, followed by measurement of p27, IκB-α and Bax, three well-known proteasome target proteins (Pagano, M. et al. Science, 1995, 269:682-685; An, B. et al. Cell Death Differ, 1998, 5:1062-75; Sun, J. et al. Cancer Res, 2001, 61:1280-1284; Palombella, V. J. et al. Cell, 1994, 78:773-785; Thompson, J. E. et al. Cell, 1995, 80:573-582; Perkins, N. D. Trends Biochem Sci, 2000, 25:434-440; Chang, Y. C. et al. Cell Growth Differ, 1998, 9:79-84; Li, B. and Dou, Q. P. Proc Natl Acad Sci USA, 2000, 97:3850-3855; Nam, S. et al. Cancer Epidemiol Biomarkers Prey, 2001, 10:1083-1088). In this experiment (−)-EGCG and (+)-EGCG were used as positive controls.
Having determined that the synthetic GTP-1 to −5 analogs are able to inhibit the proteasomal chymotrypsin-like activity in vitro (FIG. 8), these compounds were investigated for their potency in inhibiting intact tumor cellular proteasome activity. To do so, human prostate cancer LNCaP cells were treated with one of these compounds for the indicated hours, followed by measuring levels of proteasome target proteins, p27, IκB-α, and Bax, and polyubiquitinated proteins.

VA-13 cells = assay: Western blot of p27 in SV40-transformed VA-13 fibroblasts; type: cell-based, human; conditions: 25 μM, 12 hours
Protocol: as §2
Normal WI-38 and SV40-transformed VA-13 cell lines were treated with 25 μM of (−)-EGCG, (−)-EGCG-amide, (+)-EGCG, (+)-EGCG-amide, or GTP-1 for either 12 hours or 36 hours.

purified 20S proteasome [5] = target: purified 20S proteasome (UniProt Q9P992); assay: Inhibition of chymotrypsin-like activity of purified 20S proteasome (source not stated); type: biochemical; parameters: other: 1 μM; other: 10 μM
Protocol: as §1

Sequence of purified 20S proteasome (UniProt Q9P992) (Q9P992 whole entry): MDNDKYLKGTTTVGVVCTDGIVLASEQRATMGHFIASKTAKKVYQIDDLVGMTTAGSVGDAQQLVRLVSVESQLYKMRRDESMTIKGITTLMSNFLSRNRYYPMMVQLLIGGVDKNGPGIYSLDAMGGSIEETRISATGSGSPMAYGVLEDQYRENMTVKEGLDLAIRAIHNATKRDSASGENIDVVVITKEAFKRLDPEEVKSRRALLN

Compound	colony formation (LNCaP transformation capability) (LNCaP cells [2])	IC50 (purified 20S proteasome [3])	levels of polyubiquitinated proteins (LNCaP cells [4])	levels of proteasome target proteins (p27, IκB-α) (LNCaP cells [4])	further results
O=C(O[C@@H]1Cc2c(O)cc(O)cc2O[C@@H]1c1ccc(O)c(O)c1)c1cc(O)c(O)c(O)c1 [(−)-ECG]	–	–	–	–	IC50 ([1]; chymotrypsin-like activity, rabbit 20S proteasome): 710 nM
O=C(O[C@H]1CCCC[C@H]1OC(=O)c1cc(O)c(O)c(O)c1)c1cc(O)c(O)c(O)c1 [GTP-1]	completely blocked LNCaP transformation capability	1900 nM	caused accumulation of polyubiquitinated proteins	increased levels of p27, IκB-α, and Bax proteins at as early as 3 hours	levels of p27 protein (VA-13 cells): significantly increased levels of p27 protein
O=C(N[C@H]1CCCC[C@H]1NC(=O)c1cc(O)c(O)c(O)c1)c1cc(O)c(O)c(O)c1 [GTP-2]	completely blocked LNCaP transformation capability	2500 nM	–	–	–
O=C(N[C@H]1CCCC[C@@H]1NC(=O)c1cc(O)c(O)c(O)c1)c1cc(O)c(O)c(O)c1 [GTP-3]	completely blocked LNCaP transformation capability	1500 nM	greatly increased levels of p27, IκB-α, and ubiquitinated proteins	greatly increased levels of p27, IκB-α, and ubiquitinated proteins	levels of Bax protein (LNCaP cells [4]): transiently increased levels of Bax protein
CCCC[C@@H](C=O)NC(=O)[C@H](CC(C)C)NC(=O)[C@H](CC(C)C)NC(C)=O [LLnL, reference compound] (Ac-Leu-Leu-[Nle]-aldehyde)	–	–	–	–	inhibition of proteasomal activity (purified 20S proteasome [5]; 1 μM): 20%; inhibition of proteasomal activity (purified 20S proteasome [5]; 10 μM): 70%
O=c1c(-c2ccc(O)cc2)coc2cc(O)cc(O)c12 [genistein]	–	–	–	–	IC50 ([1]; chymotrypsin-like activity of purified 20S proteasome): 26000 nM
